Measured values taken from patent publication US9499538B2, “Estrogen receptor modulators and uses thereof” (Seragon Pharmaceuticals, Inc., priority 2012, dated 2016).

How the values were obtained:
MCF-7 cells = assay: Breast Cancer Cell Viability Assays (MCF-7, CellTiter-Glo); type: cell-based; conditions: 5 days' compound exposure; for IC50: Homo sapiens, MCF7, 120 h
Outline: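 Percent viability, background-subtracted against untreated wells, was taken from CellTiter-Glo luminescence after 5 days' exposure of MCF-7 cells. Compounds were tested at eleven semilog concentrations, final 0.3–0.000003 μM, in RPMI containing 10% FBS.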

ER-α in MCF-7 cells = target: T1, ER-α in MCF-7 cells (Homo sapiens, UniProt P03372); assay: Breast Cancer Cell ER-α In Cell Western Assay (SP1); type: cell-based; conditions: 4 or 24 hr post compound addition; for Emax: MCF7, SP1 antibody, read-out: ER-α In Cell Western Assay (SP1) Max Response; for DC50: SP1 antibody, read-out: ER-α In Cell Western Assay (SP1) IC50
T1 construct: endogenous in cells; host or cells: MCF-7
T1 sequence (P03372 1-595): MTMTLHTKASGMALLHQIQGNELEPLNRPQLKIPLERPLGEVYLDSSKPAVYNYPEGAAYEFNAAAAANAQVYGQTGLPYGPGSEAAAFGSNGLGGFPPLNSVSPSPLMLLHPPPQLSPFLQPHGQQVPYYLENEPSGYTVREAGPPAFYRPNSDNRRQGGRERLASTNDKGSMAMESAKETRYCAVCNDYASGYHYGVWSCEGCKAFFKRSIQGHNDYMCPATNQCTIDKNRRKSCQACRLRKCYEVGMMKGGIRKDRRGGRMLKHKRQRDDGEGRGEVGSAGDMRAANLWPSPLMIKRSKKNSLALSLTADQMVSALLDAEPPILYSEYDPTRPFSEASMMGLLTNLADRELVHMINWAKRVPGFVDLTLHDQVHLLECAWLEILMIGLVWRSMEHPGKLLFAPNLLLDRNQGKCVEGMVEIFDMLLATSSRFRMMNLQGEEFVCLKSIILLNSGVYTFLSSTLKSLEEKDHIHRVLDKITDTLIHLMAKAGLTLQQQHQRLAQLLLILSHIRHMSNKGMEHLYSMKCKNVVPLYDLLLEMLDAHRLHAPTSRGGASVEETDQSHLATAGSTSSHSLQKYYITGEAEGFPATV
Outline: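 ER-α levels quantified by in-cell western: SP1 signal normalised to DRAQ5 DNA stain, relative to untreated cells (% ER). Compounds at 0.3–0.000003 μM final, 11-point semilog series, 4 or 24 h exposure of MCF-7 cells grown in charcoal-stripped serum.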

C/C(=C\c1ccc(/C(=C(\c2ccccc2)C2CCC2)c2ccc3[nH]nc(F)c3c2)cc1)C(=O)O [Example 267, (E)-3-(4-((E)-2-Cyclobutyl-1-(3-fluoro-1H-indazol-5-yl)-2-phenylvinyl)phenyl)-2-methylacrylic acid]
MCF7 Viability Assay Max Response (MCF-7 cells): ++ (++ = a single % value ≧ 40%) | IC50 (MCF-7 cells): ≤ 100 nM | Emax (ER-α in MCF-7 cells): ≥ 40% | DC50 (ER-α in MCF-7 cells): ≤ 100 nM

O=C(O)/C=C/c1ccc(/C(=C(\c2ccc(Cl)cc2Cl)C2CCC2)c2ccc3[nH]nc(F)c3c2)cn1 [Example 268, (E)-3-(5-((Z)-2-Cyclobutyl-2-(2,4-dichlorophenyl)-1-(3-fluoro-1H-indazol-5-yl)vinyl)pyridin-2-yl)acrylic acid]
MCF7 Viability Assay Max Response (MCF-7 cells): ++ (++ = a single % value ≧ 40%) | IC50 (MCF-7 cells): ≤ 100 nM | Emax (ER-α in MCF-7 cells): ≥ 40% | DC50 (ER-α in MCF-7 cells): ≤ 100 nM

O=C(O)/C=C/c1ccc(/C(=C(\c2ccc(F)cc2C(F)(F)F)C2CCC2)c2ccc3[nH]nc(F)c3c2)cn1 [Example 269, (E)-3-(5-((Z)-2-Cyclobutyl-1-(3-fluoro-1H-indazol-5-yl)-2-(4-fluoro-2-(trifluoromethyl)phenyl)vinyl)pyridin-2-yl)acrylic acid]
MCF7 Viability Assay Max Response (MCF-7 cells): ++ (++ = a single % value ≧ 40%) | IC50 (MCF-7 cells): ≤ 100 nM | Emax (ER-α in MCF-7 cells): ≥ 40% | DC50 (ER-α in MCF-7 cells): ≤ 100 nM

COc1ccc(/C(=C(\c2ccc(/C=C/C(=O)O)nc2)c2ccc3[nH]nc(F)c3c2)C2CCC2)c(Cl)c1 [Example 270, (E)-3-(5-((Z)-2-(2-Chloro-4-methoxyphenyl)-2-cyclobutyl-1-(3-fluoro-1H-indazol-5-yl)vinyl)pyridin-2-yl)acrylic acid]
MCF7 Viability Assay Max Response (MCF-7 cells): ++ (++ = a single % value ≧ 40%) | IC50 (MCF-7 cells): ≤ 100 nM | Emax (ER-α in MCF-7 cells): ≥ 40% | DC50 (ER-α in MCF-7 cells): ≤ 100 nM

O=C(O)/C=C/c1ccc(/C(=C(\c2ccc(F)cc2Cl)C2CCC2)c2ccc3[nH]nc(F)c3c2)cc1F [Example 271, (E)-3-(4-((Z)-2-(2-Chloro-4-fluorophenyl)-2-cyclobutyl-1-(3-fluoro-1H-indazol-5-yl)vinyl)-2-fluorophenyl)acrylic acid]
MCF7 Viability Assay Max Response (MCF-7 cells): ++ (++ = a single % value ≧ 40%) | IC50 (MCF-7 cells): ≤ 100 nM | Emax (ER-α in MCF-7 cells): ≥ 40% | DC50 (ER-α in MCF-7 cells): ≤ 100 nM

O=C(O)/C=C/c1ccc(/C(=C(\c2ccc(OC(F)(F)F)cc2Cl)C2CCC2)c2ccc3[nH]nc(F)c3c2)cn1 [Example 272, (E)-3-(5-((Z)-2-(2-Chloro-4-(trifluoromethoxy)phenyl)-2-cyclobutyl-1-(3-fluoro-1H-indazol-5-yl)vinyl)pyridin-2-yl)acrylic acid]
MCF7 Viability Assay Max Response (MCF-7 cells): ++ (++ = a single % value ≧ 40%) | IC50 (MCF-7 cells): ≤ 100 nM | Emax (ER-α in MCF-7 cells): ≥ 40% | DC50 (ER-α in MCF-7 cells): ≤ 100 nM

O=C(O)/C=C/c1ccc(/C(=C(\c2ccc(OC(F)(F)F)cc2Cl)C2CCC2)c2ccc3[nH]nc(F)c3c2)cc1 [Example 273, (E)-3-(4-((E)-2-(2-Chloro-4-(trifluoromethoxy)phenyl)-2-cyclobutyl-1-(3-fluoro-1H-indazol-5-yl)vinyl)phenyl)acrylic acid]
MCF7 Viability Assay Max Response (MCF-7 cells): ++ (++ = a single % value ≧ 40%) | IC50 (MCF-7 cells): ≤ 100 nM | Emax (ER-α in MCF-7 cells): ≥ 40% | DC50 (ER-α in MCF-7 cells): ≤ 100 nM

O=C(O)/C=C/c1ccc(/C(=C(\c2ccc(C(F)(F)F)cc2Cl)C2CCC2)c2ccc3scnc3c2)cc1 [Example 274, (E)-3-(4-((E)-1-(Benzo[d]thiazol-5-yl)-2-(2-chloro-4-(trifluoromethyl)phenyl)-2-cyclobutylvinyl)phenyl)acrylic acid]
MCF7 Viability Assay Max Response (MCF-7 cells): ++ (++ = a single % value ≧ 40%) | IC50 (MCF-7 cells): ≤ 100 nM | Emax (ER-α in MCF-7 cells): ≥ 40% | DC50 (ER-α in MCF-7 cells): ≤ 100 nM

O=C(O)/C=C/c1ccc(/C(=C(\c2ccc(C(F)(F)F)cc2Cl)C2CCC2)c2ccc3[nH]nc(F)c3c2)cc1 [Example 275, (E)-3-(4-((E)-2-(2-Chloro-4-(trifluoromethyl)phenyl)-2-cyclobutyl-1-(3-fluoro-1H-indazol-5-yl)vinyl)phenyl)acrylic acid]
MCF7 Viability Assay Max Response (MCF-7 cells): ++ (++ = a single % value ≧ 40%) | IC50 (MCF-7 cells): ≤ 100 nM | Emax (ER-α in MCF-7 cells): ≥ 40% | DC50 (ER-α in MCF-7 cells): ≤ 100 nM

COc1ccc(/C(=C(\c2ccc(/C=C/c3noc(=O)[nH]3)cc2)c2ccc3[nH]nc(F)c3c2)C2CCC2)c(Cl)c1 [Example 276, 3-((E)-4-((E)-2-(2-Chloro-4-methoxyphenyl)-2-cyclobutyl-1-(3-fluoro-1H-indazol-5-yl)vinyl)styryl)-1,2,4-oxadiazol-5(4H)-one]
MCF7 Viability Assay Max Response (MCF-7 cells): ++ (++ = a single % value ≧ 40%) | IC50 (MCF-7 cells): ≤ 100 nM | Emax (ER-α in MCF-7 cells): ≥ 40% | DC50 (ER-α in MCF-7 cells): ≤ 100 nM

O=c1[nH]c(/C=C/c2ccc(/C(=C(\c3ncc(C(F)(F)F)cc3Cl)C3CCC3)c3ccc4scnc4c3)cc2)no1 [Example 277, 3-((E)-4-((E)-1-(Benzo[d]thiazol-5-yl)-2-(3-chloro-5-(trifluoromethyl)pyridin-2-yl)-2-cyclobutylvinyl)styryl)-1,2,4-oxadiazol-5(4H)-one]
MCF7 Viability Assay Max Response (MCF-7 cells): ++ (++ = a single % value ≧ 40%) | IC50 (MCF-7 cells): ≤ 100 nM | Emax (ER-α in MCF-7 cells): ≥ 40% | DC50 (ER-α in MCF-7 cells): ≤ 100 nM

COc1ccc(/C(=C(\c2ccc(/C=C/c3noc(=O)[nH]3)cc2)c2ccc3scnc3c2)C2CCC2)c(Cl)c1 [Example 278, 3-((E)-4-((E)-1-(Benzo[d]thiazol-5-yl)-2-(2-chloro-4-methoxyphenyl)-2-cyclobutylvinyl)styryl)-1,2,4-oxadiazol-5(4H)-one]
MCF7 Viability Assay Max Response (MCF-7 cells): ++ (++ = a single % value ≧ 40%) | IC50 (MCF-7 cells): ≤ 100 nM | Emax (ER-α in MCF-7 cells): ≥ 40% | DC50 (ER-α in MCF-7 cells): ≤ 100 nM

O=c1[nH]c(/C=C/c2ccc(/C(=C(\c3ncc(C(F)(F)F)cc3Cl)C3CCC3)c3ccc4[nH]nc(F)c4c3)cc2)no1 [Example 279, 3-((E)-4-((E)-2-(3-Chloro-5-(trifluoromethyl)pyridin-2-yl)-2-cyclobutyl-1-(3-fluoro-1H-indazol-5-yl)vinyl)styryl)-1,2,4-oxadiazol-5(4H)-one]
MCF7 Viability Assay Max Response (MCF-7 cells): ++ (++ = a single % value ≧ 40%) | IC50 (MCF-7 cells): ≤ 100 nM | Emax (ER-α in MCF-7 cells): ≥ 40% | DC50 (ER-α in MCF-7 cells): ≤ 100 nM

N#Cc1cc(C(F)(F)F)ccc1/C(=C(\c1ccc(/C=C/c2noc(=O)[nH]2)cc1)c1ccc2[nH]nc(F)c2c1)C1CCC1 [Example 280, 2-((E)-1-Cyclobutyl-2-(3-fluoro-1H-indazol-5-yl)-2-(4-((E)-2-(5-oxo-4,5-dihydro-1,2,4-oxadiazol-3-yl)vinyl)phenyl)vinyl)-5-(trifluoromethyl)benzonitrile]
MCF7 Viability Assay Max Response (MCF-7 cells): ++ (++ = a single % value ≧ 40%) | IC50 (MCF-7 cells): ≤ 100 nM | Emax (ER-α in MCF-7 cells): ≥ 40% | DC50 (ER-α in MCF-7 cells): ≤ 100 nM

CS(=O)(=O)c1cc(Cl)ccc1/C(=C(\c1ccc(/C=C/C(=O)O)cc1)c1ccc2scnc2c1)C1CCC1 [Example 281, (E)-3-(4-((E)-1-(Benzo[d]thiazol-5-yl)-2-(4-chloro-2-(methylsulfonyl)phenyl)-2-cyclobutylvinyl)phenyl)acrylic acid]
MCF7 Viability Assay Max Response (MCF-7 cells): ++ (++ = a single % value ≧ 40%) | IC50 (MCF-7 cells): ≤ 100 nM | Emax (ER-α in MCF-7 cells): ≥ 40% | DC50 (ER-α in MCF-7 cells): ≤ 100 nM

CS(=O)(=O)c1cc(Cl)ccc1/C(=C(\c1ccc(/C=C/C(=O)O)cc1)c1ccc2[nH]nc(F)c2c1)C1CCC1 [Example 282, (E)-3-(4-((E)-2-(4-Chloro-2-(methylsulfonyl)phenyl)-2-cyclobutyl-1-(3-fluoro-1H-indazol-5-yl)vinyl)phenyl)acrylic acid]
MCF7 Viability Assay Max Response (MCF-7 cells): ++ (++ = a single % value ≧ 40%) | IC50 (MCF-7 cells): ≤ 100 nM | Emax (ER-α in MCF-7 cells): ≥ 40% | DC50 (ER-α in MCF-7 cells): ≤ 100 nM

O=c1[nH]nc(/C=C/c2ccc(/C(=C(\c3ccccc3)C3CCC3)c3ccc4[nH]nc(F)c4c3)cc2)[nH]1 [Example 283, 3-((E)-4-((E)-2-Cyclobutyl-1-(3-fluoro-1H-indazol-5-yl)-2-phenylvinyl)styryl)-1H-1,2,4-triazol-5(4H)-one]
MCF7 Viability Assay Max Response (MCF-7 cells): ++ (++ = a single % value ≧ 40%) | IC50 (MCF-7 cells): ≤ 100 nM | Emax (ER-α in MCF-7 cells): ≥ 40% | DC50 (ER-α in MCF-7 cells): ≤ 100 nM

Fc1n[nH]c2ccc(/C(=C(/c3ccccc3)C3CCC3)c3ccc(/C=C/c4nnc[nH]4)cc3)cc12 [Example 284, 5-((E)-1-(4-((E)-2-(4H-1,2,4-Triazol-3-yl)vinyl)phenyl)-2-cyclobutyl-2-phenylvinyl)-3-fluoro-1H-indazole]
MCF7 Viability Assay Max Response (MCF-7 cells): ++ (++ = a single % value ≧ 40%) | IC50 (MCF-7 cells): ≤ 100 nM | Emax (ER-α in MCF-7 cells): ≥ 40% | DC50 (ER-α in MCF-7 cells): ≤ 100 nM

Fc1n[nH]c2ccc(/C(=C(/c3ccccc3)C3CCC3)c3ccc(/C=C/c4ncc[nH]4)cc3)cc12 [Example 285, 5-((E)-1-(4-((E)-2-(1H-Imidazol-2-yl)vinyl)phenyl)-2-cyclobutyl-2-phenylvinyl)-3-fluoro-1H-indazole]
MCF7 Viability Assay Max Response (MCF-7 cells): ++ (++ = a single % value ≧ 40%) | IC50 (MCF-7 cells): ≤ 100 nM | Emax (ER-α in MCF-7 cells): ≥ 40% | DC50 (ER-α in MCF-7 cells): ≤ 100 nM
